What was measured:
Staphylococcus aureus = assay: Antibacterial activity, agar growth inhibition; type: cell-based
Protocol: (§1) The antibacterial activity of Compounds A-E was investigated by means of incorporating the compounds into sterile tryptic soy agar (Difco) at levels of 100, 10, and 1 μg/ml. The agar was also […] with a 1:100 dilution of an 18-hour old culture of the desired bacterial species in sterile distilled water. The plates were incubated for 24 hours at 37° C. with each bacterial strain. Observations of bacterial growth inhibition were made following the appropriate incubation period.
(§2) A solvent control was included in all evaluations, as were growth controls for all bacteria species.
(§3) Comparative compounds 1-5 above were employed for comparison purposes. These compounds were tested for antibacterial activity in the same manner as the triorganotin 5-nitro-2-furoates of the present invention.
(§4) All of the bacteria tested were obtained from the culture collection of the Department of Biological Sciences, St. John's University.
(§5) The ability of Compound B to inhibit the growth of other Gram-positive bacteria, using the same test procedures as described for the antibacterial activity determined in Table III above, is illustrated in Table IV below.

test fungi = assay: Antifungal activity, summary over the 10 test fungi; type: cell-based
Protocol: (§6) Dilutions of the sterile solutions were prepared and added to liquified potato dextrose agar (Difco) to yield final concentrations of 100, 10 and 1 μg/ml. The agar, containing the appropriate organotin compound, was poured into sterile petri dishes and allowed to solidify over night. The agar surface was inoculated centrally with a 2 mm^2 portion of the growth from a ten-day-old culture of each fungus of the group consisting of Aspergillus niger, Chaetomium globosum, Cladosporium carpophilum, Fusarium moniliforme, Myrotheium verrucaria, Penicillium notatum, Rhizopus stolonifer, Trichoderma viride and Trichophyton mentagrophytes, or from a two-day-old culture of Saccharomyces cerevisiae. Inoculated plates were incubated for 14 days and observations of growth inhibition were made by measuring the diameters of the colonies present on the agar surface.
(§7) A solvent was included in all evaluations, as were growth controls for all fungal species.
(§8) The following compounds were tested for comparative purposes: [drawing 6] These compounds were tested for antifungal activity in the same manner as the triorganotin 5-nitro-2-furoates of the present invention.

[1] = system: Cladosporium carpophilium (ATCC 12117); assay: Antifungal activity, agar plate growth inhibition; type: cell-based, Cladosporium carpophilum; conditions: 14 days
Protocol: as §6, §7, §8

[2] = system: Penicillium notatum (ATCC 9179); assay: Antifungal activity, agar plate growth inhibition; type: cell-based; conditions: 14 days
Protocol: as §6, §7, §8

[3] = system: Trichophyton mentagrophytes (ATCC 9129); assay: Antifungal activity, agar plate growth inhibition; type: cell-based; conditions: 14 days
Protocol: as §6, §7, §8

[4] = system: Aspergillus niger (ATCC 12845); assay: Antifungal activity, agar plate growth inhibition; type: cell-based; conditions: 14 days
Protocol: as §6, §7, §8

[5] = system: Chaetomium globosum (ATCC 6205); assay: Antifungal activity, agar plate growth inhibition; type: cell-based; conditions: 14 days
Protocol: as §6, §7, §8

[6] = system: Rhizopus stolonifer (ATCC 10404); assay: Antifungal activity, agar plate growth inhibition; type: cell-based; conditions: 14 days
Protocol: as §6, §7, §8

[7] = system: Myrothecium verrucaria (ATCC 9095); assay: Antifungal activity, agar plate growth inhibition; type: cell-based; conditions: 14 days
Protocol: as §6, §7, §8

[8] = system: Saccharomyces cerevisiae (ATCC 9896); assay: Antifungal activity, agar plate growth inhibition; type: cell-based; conditions: 14 days
Protocol: as §6, §7, §8

[9] = system: Trichoderma viride (ATCC 8678); assay: Antifungal activity, agar plate growth inhibition; type: cell-based; conditions: 14 days
Protocol: as §6, §7, §8

[10] = system: Fusarium moniliforme (ATCC 10052); assay: Antifungal activity, agar plate growth inhibition; type: cell-based; conditions: 14 days
Protocol: as §6, §7, §8

Bacillus megaterium = assay: Antibacterial activity, agar growth inhibition; type: cell-based; conditions: Gram-positive
Protocol: (§9) The agar was also needed with a 1:100 dilution of an 18-hour old culture of the desired bacterial species in sterile distilled water. The plates were incubated for 24 hours at 37° C. with each bacterial strain. Observations of bacterial growth inhibition were made following the appropriate incubation period.
as §2
(§10) These compounds were tested for antibacterial activity in the same manner as the triorganotin 5-nitro-2-furoates of the present invention.
as §4

Escherichia coli = assay: Antibacterial activity, agar growth inhibition; type: cell-based; conditions: for growth inhibition: Gram-negative, 24 hours at 37° C.
Protocol: as §9, §2, §10, §4

Pseudomonas aeruginosa = assay: Antibacterial activity, agar growth inhibition; type: cell-based; conditions: Gram-negative, 24 hours at 37° C.
Protocol: as §9, §2, §10, §4

Bacillus subtilis = assay: Antibacterial activity, agar growth inhibition; type: cell-based; parameters: key: -: no inhibition of growth; +: partial inhibition; 2+: complete inhibition; conditions: Gram-positive; 1 μg/ml; 24 hours at 37° C.
Protocol: as §1, §2, §3, §4, §5

“Triphenyltin 5-nitro-2-furoate [Compound A]” was tested, and the “minimum concentration for complete growth inhibition” value (Staphylococcus aureus; Gram-positive) was 1 µg/mL, the “activity relative to Comparative Compounds 2, 4 and 5” value (Staphylococcus aureus; towards Staphylococcus aureus) was “identical” and the “partial growth inhibition of test fungi (in words)” value (test fungi; 1 μg/ml) was “partially inhibiting the growth of all of the test fungi, except Saccharomyces cerevisiae”. For the same compound, the “number of test fungi with growth completely inhibited” value (test fungi; 10 μg/ml) was 5 of the 10 test fungi, the “antifungal activity, rank among the triorganotin 5-nitro-2-furoates” value (test fungi; among Compounds A-E) was “second best antifungal agent” and the growth inhibition ([1]; 1 μg/ml) was 2+. For the same compound, the growth inhibition ([1]; 10 μg/ml) was 2+, the growth inhibition ([1]; 100 μg/ml) was 2+ and the growth inhibition ([2]; 1 μg/ml) was “+”. The growth inhibition ([2]; 10 μg/ml) was 2+, the growth inhibition ([2]; 100 μg/ml) was 2+ and the growth inhibition ([3]; 1 μg/ml) was “+”. For the same compound, the growth inhibition ([3]; 10 μg/ml) was 2+, the growth inhibition ([3]; 100 μg/ml) was 2+ and the growth inhibition ([4]; 1 μg/ml) was “+”. For the same compound, the growth inhibition ([4]; 10 μg/ml) was 2+, the growth inhibition ([4]; 100 μg/ml) was 2+ and the growth inhibition ([5]; 1 μg/ml) was “+”. For the same compound, the growth inhibition ([5]; 10 μg/ml) was “+”, the growth inhibition ([5]; 100 μg/ml) was “+” and the growth inhibition ([6]; 1 μg/ml) was “+”. For the same compound, the growth inhibition ([6]; 10 μg/ml) was “+”, the growth inhibition ([6]; 100 μg/ml) was “+” and the growth inhibition ([7]; 1 μg/ml) was “+”. The growth inhibition ([7]; 10 μg/ml) was 2+, the growth inhibition ([7]; 100 μg/ml) was 2+ and the growth inhibition ([8]; 1 μg/ml) was “-”. The growth inhibition ([8]; 10 μg/ml) was “+”, the growth inhibition ([8]; 100 μg/ml) was “+” and the growth inhibition ([9]; 1 μg/ml) was “+”. For the same compound, the growth inhibition ([9]; 10 μg/ml) was “+”, the growth inhibition ([9]; 100 μg/ml) was “+” and the growth inhibition ([10]; 1 μg/ml) was “+”. The growth inhibition ([10]; 10 μg/ml) was “+”, the growth inhibition ([10]; 100 μg/ml) was “+” and the “minimum concentration for complete growth inhibition” value (Bacillus megaterium) was 1 µg/mL. For the same compound, the growth inhibition (Escherichia coli; 1 μg/ml) was “-”, the growth inhibition (Escherichia coli; 10 μg/ml) was “-” and the growth inhibition (Escherichia coli; 100 μg/ml) was “-”. The growth inhibition (Pseudomonas aeruginosa; 1 μg/ml) was “-”, the growth inhibition (Pseudomonas aeruginosa; 10 μg/ml) was “-” and the growth inhibition (Pseudomonas aeruginosa; 100 μg/ml) was “-”.
With `CCOC(=Nc1ccccc1)[S][Sn]([c]1ccccc1)([c]1ccccc1)[c]1ccccc1` [compound 4, Ethyl N--phenyl-S--(triphenylstannyl)iso-thiocarbamate, reference compound] the growth inhibition (Bacillus subtilis) was “-”, the growth inhibition ([1]; 1 μg/ml) was “+” and the growth inhibition ([1]; 10 μg/ml) was “+”. For the same compound, the growth inhibition ([1]; 100 μg/ml) was 2+, the growth inhibition ([2]; 1 μg/ml) was “+” and the growth inhibition ([2]; 10 μg/ml) was “+”. For the same compound, the growth inhibition ([2]; 100 μg/ml) was “+”, the growth inhibition ([3]; 1 μg/ml) was “+” and the growth inhibition ([3]; 10 μg/ml) was 2+. For the same compound, the growth inhibition ([3]; 100 μg/ml) was 2+, the growth inhibition ([4]; 1 μg/ml) was “+” and the growth inhibition ([4]; 10 μg/ml) was “+”. For the same compound, the growth inhibition ([4]; 100 μg/ml) was “+”, the growth inhibition ([5]; 1 μg/ml) was “+” and the growth inhibition ([5]; 10 μg/ml) was “+”. For the same compound, the growth inhibition ([5]; 100 μg/ml) was 2+, the growth inhibition ([6]; 1 μg/ml) was “+” and the growth inhibition ([6]; 10 μg/ml) was “+”. For the same compound, the growth inhibition ([6]; 100 μg/ml) was “+”, the growth inhibition ([7]; 1 μg/ml) was “+” and the growth inhibition ([7]; 10 μg/ml) was “+”. The growth inhibition ([7]; 100 μg/ml) was “+”, the growth inhibition ([8]; 1 μg/ml) was “-” and the growth inhibition ([8]; 10 μg/ml) was “+”. The growth inhibition ([8]; 100 μg/ml) was “+”, the growth inhibition ([9]; 1 μg/ml) was “-” and the growth inhibition ([9]; 10 μg/ml) was “+”. The growth inhibition ([9]; 100 μg/ml) was “+”, the growth inhibition ([10]; 1 μg/ml) was “+” and the growth inhibition ([10]; 10 μg/ml) was “+”. The growth inhibition ([10]; 100 μg/ml) was “+”, the “growth inhibition (in words)” value (Escherichia coli; 100 μg/ml) was “partially” and the growth inhibition (Escherichia coli; 1 μg/ml) was “-”. The growth inhibition (Escherichia coli; 10 μg/ml) was “-”.

— patent publication US4497806A, “Triorganotin compounds, antifungal and antibacterial compositions containing same, and method of using same” (priority 1983, dated 1985)
